Values after ≈ are worked out from the molar mass of the structure shown.
Legend:
Assay type in all cases: functional
Escherichia coli = assay: Antibacterial activity against Escherichia coli KCCM 11234 assessed as inhibition of bacterial growth incubated for 24 hrs by broth dilution method
Pseudomonas fluorescens = assay: Antibacterial activity against Pseudomonas fluorescens KCCM 11362 assessed as inhibition of bacterial growth incubated for 24 hrs by broth dilution method
[1] = tested on: Staphylococcus epidermidis; assay: Antibacterial activity against Staphylococcus epidermidis KCCM 35494 assessed as inhibition of bacterial growth incubated for 24 hrs by broth dilution method
Bacillus subtilis = assay: Antibacterial activity against Bacillus subtilis KCCM 11316 assessed as inhibition of bacterial growth incubated for 24 hrs by broth dilution method

| Structure (SMILES) | MIC (Escherichia coli) [µg/mL] | MIC (Pseudomonas fluorescens) [µg/mL] | MIC [1] [µg/mL] | MIC (Bacillus subtilis) [µg/mL] |
| --- | --- | --- | --- | --- |
| CC[C@H](C)[C@@H]1NC(=O)[C@@H](CC(C)C)NC(=O)[C@@H](C(C)C)NC(=O)[C@H](Cc2ccccc2)NC(=O)[C@@H](CCCCN)NC(=O)[C@H](Cc2ccc(O)cc2)NC1=O | 16 (≈ 20.9 µM) | 32 (≈ 41.9 µM) | 8 (≈ 10.5 µM) | > 128 |
| NC[C@H]1O[C@H](O[C@H]2[C@H](O)[C@@H](O[C@H]3O[C@H](CO)[C@@H](O)[C@H](N)[C@H]3O)[C@H](N)C[C@@H]2N)[C@H](O)[C@@H](O)[C@@H]1O [KANAMYCIN] | 1 (≈ 2.06 µM) | 1 (≈ 2.06 µM) | 0.5 (≈ 1.03 µM) | 2 (≈ 4.13 µM) |
| CC[C@@H](C)[C@H]1NC(=O)[C@H](Cc2ccccc2)NC(=O)[C@@H](CCCCN)NC(=O)[C@H](Cc2ccc(O)cc2)NC(=O)[C@H]([C@@H](C)CC)NC(=O)[C@@H](CC(C)C)NC1=O | 16 (≈ 20.6 µM) | 16 (≈ 20.6 µM) | 4 (≈ 5.14 µM) | > 128 |

— ChEMBL document CHEMBL5335854, “Genomic and Metabolomic Analyses of Nocardiopsis maritima YSL2 as the Mycorrhizosphere Bacterium of Suaeda maritima (L.) Dumort” (2024)
